# From paper PMC4987652 (Scientific Reports, 2016)
# Entries after “also recorded” stand apart in the source; their conditions may differ.
# Legend:
# [1] = target: T1, human MOR-GFP (Homo sapiens, UniProt P35372); assay type: cell-based
# T1 construct: Human MOR cDNAs (NM_000914) with or without a stop codon were amplified from the Flexi ORF clone; expressed in transfected cells
# [2] = target: T2, human MOR (Homo sapiens, UniProt P35372); assay type: cell-based; parameters: Human MOR cDNAs (NM_000914) with or without a stop codon were amplified from the Flexi ORF clone; expressed in transfected cells; pcDNA3.1(+); the cAMP line also carries pGloSensor-22F
# T2 sequence (P35372 whole entry): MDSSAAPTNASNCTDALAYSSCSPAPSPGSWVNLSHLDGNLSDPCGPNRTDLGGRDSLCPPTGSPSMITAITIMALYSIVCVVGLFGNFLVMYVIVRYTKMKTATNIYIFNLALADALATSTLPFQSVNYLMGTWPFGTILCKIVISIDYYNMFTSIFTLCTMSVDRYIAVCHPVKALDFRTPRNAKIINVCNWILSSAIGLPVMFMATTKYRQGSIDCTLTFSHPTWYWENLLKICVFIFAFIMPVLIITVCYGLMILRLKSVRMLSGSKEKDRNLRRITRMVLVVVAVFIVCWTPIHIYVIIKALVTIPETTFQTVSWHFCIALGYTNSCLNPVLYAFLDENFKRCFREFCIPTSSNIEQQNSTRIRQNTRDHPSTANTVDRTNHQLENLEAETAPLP
# [3] = target: T2, human MOR; test: biochemical; assay type: binding; conditions: for % Inhibition of [3H]-diprenorphine binding, MOR: 10 μM test compound, mean n = 2
# [4] = target: human δ opioid receptor (DOR) (Homo sapiens, UniProt P41143); test: Receptor binding assay, primary screening, [3H]-naltrindole, DOR; conditions: 10 μM test compound, mean n = 2
# Sequence of human δ opioid receptor (DOR) (P41143 whole entry): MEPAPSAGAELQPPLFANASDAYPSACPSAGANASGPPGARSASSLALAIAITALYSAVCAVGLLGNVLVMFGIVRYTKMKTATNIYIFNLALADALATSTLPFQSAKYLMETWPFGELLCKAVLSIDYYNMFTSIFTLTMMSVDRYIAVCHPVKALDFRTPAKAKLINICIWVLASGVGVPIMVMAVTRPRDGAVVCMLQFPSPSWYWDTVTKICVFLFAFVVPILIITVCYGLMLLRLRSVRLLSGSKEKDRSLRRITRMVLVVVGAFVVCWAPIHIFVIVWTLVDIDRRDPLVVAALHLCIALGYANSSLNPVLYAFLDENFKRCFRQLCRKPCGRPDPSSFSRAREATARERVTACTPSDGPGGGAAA
# [5] = target: human KOR (Homo sapiens, UniProt P41145); test: Receptor binding assay, primary screening, [3H]-diprenorphine, KOR; conditions: 10 μM test compound, mean n = 2
# Sequence of human KOR (P41145 whole entry): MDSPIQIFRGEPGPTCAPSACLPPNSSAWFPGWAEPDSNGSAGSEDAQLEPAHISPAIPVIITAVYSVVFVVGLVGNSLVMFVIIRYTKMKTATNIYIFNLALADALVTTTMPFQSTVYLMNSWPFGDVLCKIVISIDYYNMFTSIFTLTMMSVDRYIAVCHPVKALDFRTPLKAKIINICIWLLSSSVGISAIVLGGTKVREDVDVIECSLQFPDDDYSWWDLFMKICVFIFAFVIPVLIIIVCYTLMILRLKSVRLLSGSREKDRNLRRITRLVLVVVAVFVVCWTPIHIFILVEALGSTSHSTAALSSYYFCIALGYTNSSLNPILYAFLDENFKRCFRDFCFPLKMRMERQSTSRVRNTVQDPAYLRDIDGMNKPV
# [6] = target: human nociception receptor (NOP) (Homo sapiens, UniProt P41146); test: Receptor binding assay, primary screening, [3H]-nociceptin, NOP; conditions: 10 μM test compound, mean n = 2
# Sequence of human nociception receptor (NOP) (P41146 whole entry): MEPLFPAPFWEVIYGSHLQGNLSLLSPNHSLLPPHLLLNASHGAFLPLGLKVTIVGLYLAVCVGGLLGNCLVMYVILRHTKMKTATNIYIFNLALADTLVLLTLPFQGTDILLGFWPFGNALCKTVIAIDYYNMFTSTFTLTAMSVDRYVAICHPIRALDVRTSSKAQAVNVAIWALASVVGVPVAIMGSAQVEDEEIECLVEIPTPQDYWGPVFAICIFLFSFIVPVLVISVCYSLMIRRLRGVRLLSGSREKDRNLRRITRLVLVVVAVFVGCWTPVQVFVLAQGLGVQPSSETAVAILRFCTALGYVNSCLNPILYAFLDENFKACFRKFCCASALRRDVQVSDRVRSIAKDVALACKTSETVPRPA
# [7] = test system: rat whole brain; test: Receptor binding assay, primary screening, [3H]-naloxone, rat whole brain; conditions: 10 μM test compound, mean n = 2
# [8] = Rat pharmacokinetic study of GJG, plasma LC/MS/MS; assay type: in vivo; conditions: GJG 1 g/kg oral, 1 h after administration
# Description: A pharmacokinetic study of GJG was performed to identify the bioavailable molecules in PAT. GJG (1 g/kg) was orally administered to rats and blood samples were collected 1 h after administration. Then, representative components of PAT in the collected blood samples were measured by LC/MS/MS. […] Therefore, we further investigated whether ignavine and benzoylmesaconine affect the opioid system.
# Male Sprague-Dawley rats (7 weeks, Japan Clea Inc., Tokyo, Japan) were fasted for more than 16 hours with access to water. At 1 h after oral administration of GJG (1.0 g/10 mL/kg, n = 5), blood samples were collected with a heparin-coated syringe and centrifuged at 1,500 × g for 15 minutes at 4 °C. The plasma samples were stored at −80 °C until use.
# Plasma samples were pretreated by solid-phase extraction (Oasis® MCX μ Elution Plate, 30 μm; Waters Corporation, Milford, MA, USA) and injected into the LC/MS/MS system for analysis. Components of GJG in plasma were measured by a QTRAP®5500 system (AB SCIEX, Framingham, MA, USA) equipped with an Agilent 1260 HPLC system (binary pump, online degasser, auto plate-sampler and column oven; Agilent Technologies, Santa Clara, CA, USA). The lower limits for quantification were 0.01 ng/mL for ignavine; 0.002 ng/mL for benzoylaconine; 0.001 ng/mL for benzoylmesaconine, benzoylhypaconine and 14-anisoylaconine.
# [9] = test system: normal mice; test: Tail-flick test; assay type: in vivo
# Description: (§1) Analgesic activity of ignavine was investigated by the tail-flick (Fig. 6A) and tail-pressure tests in normal mice (Fig. 6B). […] Maximum activity was shown at a dose of 0.1 mg/kg and analgesic activity was attenuated at higher doses. These dose-dependent relationships were similar to the results of in vitro assays.
# (§2) Antinociceptive responses were evaluated by the tail-flick test (Tail flick unit; Ugo Basile, Comerio, Italy) and the tail-pressure test (Pressure analgesimeter; Ugo Basile). The latency (sec) or weight (g) at which mice struggled or withdrew was considered the nociceptive threshold.
# [10] = test system: normal mice; test: Tail-pressure test; assay type: in vivo
# Description: as §1, §2
# [11] = parameters: method as in PMID 7116516; conditions: acetic acid-induced writhing and carrageenan paw edema test; cited from earlier work
# [12] = target: T2, human MOR; test: biochemical; assay type: binding; parameters: Human MOR cDNAs (NM_000914) with or without a stop codon were amplified from the Flexi ORF clone; expressed in transfected cells; pcDNA3.1(+); the cAMP line also carries pGloSensor-22F
# [13] = target: rat whole brain; conditions: read-out: Kd of radioligand, rat brain; assay condition of the binding assay; ref MDS Pharma Services; cited from earlier work
# [14] = target: human μ opioid receptor (MOR) (human) (UniProt P35372)
# Sequence of human μ opioid receptor (MOR) (human) (P35372 whole entry): as the sequence (P35372 whole entry) above
# [15] = intra-peritoneal administration, area under the curve
# [16] = intra-peritoneal, attenuated at higher doses
# T1 sequence (P35372 whole entry): as above
compound,measurement,setting,value
"C[C@@H](NC(=O)[C@@H](N)Cc1ccc(O)cc1)C(=O)NCC(=O)N(C)[C@@H](Cc1ccccc1)C(=O)NCCO [DAMGO, D-Ala(2)-N-Me-Phe(4)-Gly-ol(5)-enkephalin, reference compound]",MOR internalization (vesicle formation),[1],vesicles were observed in the intracellular space; also recorded: induced vesicle formation
same,Effect on forskolin-induced increase of intracellular cAMP,[2],inhibited the increase of intracellular cAMP
COC[C@]12CN(C)C3[C@@H]4[C@H](OC)[C@H]1[C@@]3([C@@H](OC)C[C@H]2O)[C@@H]1C[C@@]2(O)[C@H](OC(=O)c3ccccc3)[C@@H]1[C@]4(O)[C@@H](O)[C@@H]2OC [benzoylmesaconine],"% Inhibition of [3H]-diprenorphine binding, MOR",[3],2%
same,"% Inhibition of radioligand binding, DOR",[4],-8%
same,"% Inhibition of [3H]-diprenorphine binding, KOR",[5]; 10 µM,Neither ignavine nor benzoylmesaconine inhibited
same,"% Inhibition of [3H]-diprenorphine binding, KOR","[5]; listed as Benzoylmesaconine, 10 µM",3%
same,"% Inhibition of radioligand binding, NOP",[6],-9%
same,"% Inhibition of [3H]-naloxone binding, rat brain",[7],17%
same,Plasma concentration after oral GJG,[8],higher concentrations
C=C1C2CC3C4N5CC6(C)C(O)C(OC(=O)c7ccccc7)CC47C6C5CC3(C1O)C7(O)C2 (stereo not shown) [ignavine],"% Inhibition of [3H]-diprenorphine binding, MOR",[3],almost completely inhibited
same,inhibition at 10 µM,"[3]; read-out: % Inhibition of [3H]-diprenorphine binding, MOR",90%
same,inhibition at 10 µM,"[4]; read-out: % Inhibition of radioligand binding, DOR",-5%
same,"% Inhibition of [3H]-diprenorphine binding, KOR",[5],Neither ignavine nor benzoylmesaconine inhibited
same,inhibition at 10 µM,[5],0%
same,inhibition at 10 µM,"[6]; read-out: % Inhibition of radioligand binding, NOP",-7%
same,"% Inhibition of [3H]-naloxone binding, rat brain",[7]; 10 µM,also inhibited its binding
same,"% Inhibition of [3H]-naloxone binding, rat brain","[7]; listed as Ignavine, 10 µM",92%
same,"MOR internalization, ignavine alone",[1],did not affect receptor internalization
same,"Analgesic activity, tail-flick test",[9]; [15],inhibited pain
same,"Dose of maximum analgesic activity, tail-flick test",[9]; [16],0.1 mg/kg
same,"Analgesic activity, tail-pressure test",[10]; [15],inhibited pain
same,"Dose of maximum analgesic activity, tail-pressure test",[10]; [16],0.1 mg/kg
same,Plasma concentration after oral GJG,[8],highest concentration among the measured components; also recorded: higher concentrations
same,Anti-inflammatory activity and adverse effects,[11],anti-inflammatory activity
same,IC50,[12],2 µM
same,"Effect on intracellular cAMP levels, ignavine alone",[2],no effect
same,Fold increase of EC50 of DAMGO,[2],3.3 fold
same,"Modulation of DAMGO activity in cAMP assay, early period",[2],enhancing the activity of DAMGO
same,"Modulation of DAMGO activity in cAMP assay, later period",[2],inhibiting DAMGO activity
same,Modulation of endomorphin-1 (EMP-1) activity in cAMP assay,[2],positive modulation
same,Modulation of endomorphin-1 activity in cAMP assay,[2],inhibited them
same,Modulation of morphine (MRP) activity in cAMP assay,[2],positive modulation
same,Modulation of morphine activity in cAMP assay,[2],inhibited them
same,Response in cAMP assay in the presence of naloxone,[2],did not show a clear response
C=CCN1CC[C@]23c4c5ccc(O)c4O[C@H]2C(=O)CC[C@@]3(O)[C@H]1C5 [naloxone],Kd,[13],0.0014 µM
D-Ala(2)-N-Me-Phe(4)-Gly-ol(5)-enkephalin (peptide),"EC50 of DAMGO in the intracellular cAMP assay, fold change with 1 μM ignavine against DMSO, 7.5 min after forskolin",[14],3.8 fold
same,"EC50 of DAMGO in the intracellular cAMP assay, fold change with 10 μM ignavine against DMSO, 23.5 min after forskolin",[14],3.3 fold
